From patent publication US6528286B1, “Mammalian cell culture process for producing glycoproteins” (Genentech, Inc., priority 1998, dated 2003)
“Also recorded” adds a separate entry of the source. Where two headings read alike, the source gives them in different places.

Columns and labels:
[1] = test system: CHO cells producing TNFR1-IgG1; test: Incubation of high cell concentration perfusion culture suspension in spinner flasks with CuCl2; format: cell-based, Chinese hamster; conditions: 1 mM and 5 mM CuCl2, 24 hours at 33° C.
Experimental: FIG. 2: Sialic acid (SA) content :of TNFR1-IgG1 after incubation of cell culture suspension taken from a perfusion culture at high cell concentration (6% packed cell volume, 77% viability at start of incubation) compared to starting sialic acid content before incubation. A sample of the perfusion culture was removed and incubated in spinner flasks containing 0, 1 mM and 5 mM CuCl2 for 24 hours at 33° C.
Sialic acid content was analyzed by the method of Warren, L. (1959) J. Biol. Chem. 234:1971-1975. or the method of Anumula, K. R. (1995) Anal. Biochem. 230:24-30.
To test the effect of CuCl2 on stabilization of the sialic acid content high cell concentration from a perfusion culture were incubated over night in spinner flasks with the addition 0, 1 and 5 mM CuCl2.

[2] = test system: CHO cells producing TNFR1-IgG1; test: Impact of CuCl2 on growth and viability of CHO cells under growth conditions; format: cell-based, Chinese hamster
Experimental: CuCl2 was added to the culture medium before inoculation with cells at concentrations from 0 to 3.2 mM. Inhibition of growth could be detected above 0.2 mM.
CuCl2 was added to the culture medium before inoculation with cells at concentrations from 0-3.2 mM. A toxic effect could be observed at concentrations above 0.2 mM. Concentrations above 0.4 mM lead to rapid cell death.
Since heavy metals such as copper are toxic the effects of CuCl2 concentrations from 0-5 mM on growth and viability of CHO cells at 37° C. and 33° C. incubation temperature producing a glycoprotein were investigated(FIGS. 3, 4 and 5). Toxic effects and growth inhibition could be detected above 0.2 mM CuCl2.

[3] = test system: CHO cells producing TNFR1-IgG1; format: cell-based, Chinese hamster; conditions: for SA content on day 9 / SA content on day 12 / Sialic Acid content on day 9 / Sialic Acid content on day 12: TNFR1-IgG1
Text: The Chinese hamster ovary (CHO)cell line used as the mammalian host cell line was derived from CHO DG44 cells. The gene encoding the soluble type 1 TNFR-IgG1 was introduced into CHO DG44 cells by transfection. This was accomplished using the calcium phosphate technique for introducing DNA into mammalian cells. Clones expressing the TNFR1-IgG1 were amplified in methotrexate yielding high expressing clones and subsequently adapted to serum free medium. These cells were under continuous selective pressure until transferred to nonselective medium for growth and expansion of the inoculum. To provide cells for TNFR1-IgG1 production cultures the cell population described above was expanded from the medium containing methotrexate by serial subcultivations in vessels of increasing volumes to growth medium containing no methotrexate. For these steps of the process the non selective growth medium was DMEM/HAM F-12 based formulation (see, for example, U.S. Pat. No. 5,122,469, herein incorporated by reference in its entirety) with modified concentrations of some components, such as glucose, amino acids, salts, sugar, vitamins glycine, hypoxanthine, and thymidine; recombinant human insulin, hydrolyzed peptone (Protease Peptone 2 or 3, Primatone HS or Primatone RL), a cell protective agent such as Pluronic F68 (pluronic polyol) or the equivalent; Gentamycin; and trace elements. The cultures were controlled at pH 7.2+/−0.4 by the use of CO2 gas (acid) and /or Na2CO3 (base). Temperature was controlled near 37° C. during the growth period. Dissolved oxygen was maintained above 5% of air saturation by direct sparging with air and/or oxygen gas. The growth phase for each culture was followed by a second phase or transition phase wherein culture parameters were changed from growth to production conditions. During this transition phase the temperature of the culture system was decreased, generally to about between 30 and 35° C. and usually about 33° C. Copper chloride was added to the culture medium. Product accumulated during the production phase was analyzed for sialic acid content. […] Sialic acid content was analyzed by the method of Warren, L. (1959) J. Biol. Chem. 234:1971-1975. or the method of Anumula, K. R. (1995) Anal. Biochem. 230:24-30. Glycoprotein production culture was inoculated at 0.2% packed cell volume (PCV). Cells were grown for about 2 days under optimal growth conditions (37° C., low osmolality). When reaching 1% PCV (after about 2 days) the culture conditions were changed from optimal growth to production conditions. This means that growth is slowed under these conditions. This change includes a temperature shift to 33° C. and the addition of a complex feed (a concentrated form of media components). Due to the toxic effects of copper additions higher than 0.2 mM under growth conditions copper additions in the production phase of the glycoprotein production process were investigated. In the process, maximal cell mass was reached after the fifth day in culture. Since significant desialyation occurs after the fifth day in culture and especially significant decrease after about the eighth day in culture (FIG. 1), copper additions of 0.5 and 1.0 mM at day 6 and day 8 of the culture were investigated (FIG. 6). Further experiments were run to test copper additions at other concentrations. 0.38 mM copper was added.

CHO-K1 cells = conditions: copper-supplemented culture medium; cited from earlier work
HeLa cell = HeLa cell culture medium; cited from earlier work
[4] = test system: Cytosolic and membrane-associated sialidase I; conditions: partially purified extracts from rat liver or rat skeletal muscle; cited from earlier work
[5] = 0.5 and 1.0 mM CuCl2 added in production phase
[6] = copper 0.38 mM added on day 6, Table III
[7] = copper 0.5 mM added on day 6, Table II
[8] = copper 0.5 mM added on day 6, Table III
[9] = copper 0.5 mM added on day 8, Table II
[10] = copper 1.0 mM added on day 6, Table II
[11] = copper 1.0 mM added on day 8, Table II

[Cl][Cu][Cl] [CuCl2]
Stabilization of sialic acid content of TNFR1-IgG1 [1]: effective in stabilizing the sialic acid content in a dose dependent manner; also recorded: effective in stabilizing the SA content in a dose dependent manner
Toxic effect at 37 versus 33° C. incubation temperature ([2]; 0-5 mM CuCl2): very similar for 37 °C and 33 °C
CuCl2 concentration above which inhibition of growth could be detected ([2]; added before inoculation, 0 to 3.2 mM (0-5 mM)): above 0.2 mM
Copper concentration above which cell death results ([2]; conditions normally associated with cell growth): above 0.4 mM
CuCl2 concentration above which a toxic effect on viability could be observed ([2]; growth conditions, added before inoculation): above 0.2 mM
Culture performance and productivity [3, 5]: good culture performance and productivity
Sialic acid content in production cultures [3, 5]: stabilized
SA content on day 9 [3, 6]: 5.5 mol/mol
SA content on day 12 [3, 6]: 4.9 mol/mol
Sialic Acid content on day 9 [3, 7]: 5.3 mol/mol
Sialic Acid content on day 12 [3, 7]: 4.9 mol/mol
SA content on day 9 [3, 8]: 5.3 mol/mol
SA content on day 12 [3, 8]: 5.0 mol/mol
Sialic Acid content on day 9 [3, 9]: 5.0 mol/mol
Sialic Acid content on day 12 [3, 9]: 5.0 mol/mol
Sialic Acid content on day 9 [3, 10]: 5.0 mol/mol
Sialic Acid content on day 12 [3, 10]: 5.0 mol/mol
Sialic Acid content on day 9 [3, 11]: 5.0 mol/mol
Sialic Acid content on day 12 [3, 11]: 5.0 mol/mol
Product concentr. on day 9 [3, 6]: 324 mg/L
Product concentr. on day 12 [3, 6]: 518 mg/L
Product concentr. on day 9 [3, 7]: 230 mg/L
Product concentr. on day 12 [3, 7]: 304 mg/L
Product concentr. on day 9 [3, 8]: 350 mg/L
Product concentr. on day 12 [3, 8]: 545 mg/L
Product concentr. on day 9 [3, 9]: 244 mg/L
Product concentr. on day 12 [3, 9]: 417 mg/L
Product concentr. on day 9 [3, 10]: 218 mg/L
Product concentr. on day 12 [3, 10]: 286 mg/L
Product concentr. on day 9 [3, 11]: 289 mg/L
Product concentr. on day 12 [3, 11]: 371 mg/L

[Cu+2] [Cu^2+]
LD50 (CHO-K1 cells): 126 µM
Copper ion concentrations that did not interfere with cell growth (HeLa cell): 1-100 μm
Copper ion concentration at which sialidase I was inhibited [4]: approximately 1 mM
